What was measured:
[1] = system: hepatocyte cell line (HepG2); experiment: In vitro assay of gene expression in hepatocyte cell line; type: cell-based, human; details: HepG2, 24 h; Histidine 10 mM, carnosine 5 mM, cysteine 5 mM, serine 5 mM; vs. control
Procedure: These concentrations were conserved with the different combinations. Data are expressed as mean±SEM; n=3-4 per condition. *p<0.05; **p<0.01, ***p<0.001 vs. vehicle.
An in vitro assay was also carried out using the hepatocyte cell line (HepG2) to test the effect of different combinations of the supplemented amino acids in hepatic expression of key genes of fatty acid beta-oxidation (carnitine palmitoyltransferase, Cpt1a), inflammation (chemokine (C-C motif) ligand 2, CCL2), lipolysis (hormone-sensitive, HSL; and lipin, LPIN) and lipogenesis (fatty acid synthase, FASN). Gene expression was determined by qPCR as previously indicated (see materials and methods in example 1). […] The Cpt1a enzyme is located in the outer membrane, and it is the key enzyme in the carnitine-dependent transport across the mitochondrial inner membrane. Its deficiency results in a decreased rate of fatty acid beta-oxidation.
Data are depicted in FIG. 7, wherein the level of expression (mRNA) is indicated for any of the supplemented media. […]

[2] = system: mice consumed high saturated fat diet; details: Mong et al.; cited from earlier work

| SMILES | Cpt1a mRNA expression (the cited enzyme) [1] | body weight [2] | epididymal fat [2] | hepatic cholesterol levels [2] | hepatic triglyceride levels [2] | hyper-insulinemia [2] | insulin sensitivity [2] |
| --- | --- | --- | --- | --- | --- | --- | --- |
| NCCC(=O)N[C@@H](Cc1cnc[nH]1)C(=O)O [carnosine] | trend to reduce the effect | lowered | lowered | lowered | lowered | attenuated | improved |
| N[C@@H](Cc1c[nH]cn1)C(=O)O [histidine] | – | lowered | lowered | lowered | lowered | attenuated | improved |
